Experimental data reported in patent US20250177430A1, “Compositions Comprising NAD+ and Associated Methods of Treatment” (priority 2022, published 2025).

Key:
[1] = system: dissociative experience and discomfort; test: Tolerability and dissociative effects in treated patients
Source text: The individual components of the composition can be administered individually.

[2] = system: opiate withdrawal symptoms; test: Treatment of opiate/heroin withdrawal patients, delivery by SphenoCath to the sphenopalatine foramen; format: in vivo, human
Source text: A device called the SphenoCath has been used to administer medication to the sphenopalatine foramen. The SphenoCath is a curved flexible catheter with a semi-rigid retractable sheath overlaying the catheter attached to a syringe. The SphenoCath is inserted through the nostril, until the tip of the SphenoCath reaches the anterior roof of the nasal cavity. The sheath of the SphenoCath is retracted allowing the curved inner catheter to drop over the anterior aspect of the middle turbinate. With the head correctly positioned medication is reliably dispensed to the area of the membrane covering the sphenopalatine foramen, and then through absorption into the pterygopalatine fossa and the nerves contained therein.
At the eleventh treatment dexamethasone was added to the combination. […] The treatment including dexamethasone was repeated 2 more times.

anxiety and depression = test: Treatment of anxiety and depression patients, delivery by SphenoCath, subjective and family reports; format: in vivo, human; conditions: Patient 2; single IV treatment, about 30 mg
Description: Patient continued treatment over the course of a six-month period on an as-needed basis, which ranged from twice a week to every other month.
Inventor and patient decided to begin with the fairly typical six treatment induction phase used by IV ketamine clinics, but deliver it using the SphenoCath to the sphenopalatine foramen.
The fourth treatment was 2 ml of the combination with concentrations of 80 mg/ml NAD+, 12.5 mg/ml ketamine, and 5 mg/ml. […] Several of the treatments included a rotation of the head. For example, the combination was administered to the Patient and the head was rotated 30 degrees to the right for 5 minutes, then 30 degrees to the left for 5 minutes and then neutral for 5 minutes. Other times the head was rotated to the right at 30 degrees for 5 minutes, then 30 degrees to the left for 5 minutes and then neutral for 5 minutes.
Patient 5 completed the GAD 7 and PHQ 9 screening tools before treatment and two weeks after completion of the series. […] Patient returned for “booster” treatments four months later. […] The treatment regime also included 30-degree rotation to the right for 5 minutes, then 30-degree rotation to the left for 5 minutes, finally neutral for 5 minutes.
The first treatment was 1.8 ml of the combination with concentrations of 55 mg/ml NAD+, 14 mg/ml ketamine, 3 mg/ml. […]

migraine and facial pain = conditions: through the sphenopalatine foramen into the pterygopalatine fossa; inventor's patients

Q: For `NC(=O)c1ccc[n+]([C@@H]2O[C@H](COP(=O)([O-])OP(=O)(O)OC[C@H]3O[C@@H](n4cnc5c(N)ncnc54)[C@H](O)[C@@H]3O)[C@@H](O)[C@H]2O)c1` [NAD+], which “patient experience on receiving the component individually” value ([1]; NAD+ administered individually) is on record?
A: less pleasant and can lead to discomfort

Q: What about the “effect on dissociative effects of the NMDA receptor antagonist” value ([1]; NAD+ in composition with lidocaine and ketamine) of the same molecule?
A: significantly diminishes the dissociative effects

Q: What about the “effect of adding NAD+ on chemical dependency (withdrawal symptoms and cravings)” value ([2]; added to lidocaine, general observation) of the same molecule?
A: significantly enhanced the effect on chemical dependency

Q: Which results are given for `CNC1(c2ccccc2Cl)CCCCC1=O` (centres unmarked) [ketamine]?
A: patient experience with ketamine alone ([1]; IV and intranasal, compared with mixture of NAD+, lidocaine and ketamine): more intense and dissociative experience; patient experience of IV ketamine ([1]; Patient 2, IV at a ketamine clinic, stopped after about 30 mg): very dissociative and unpleasant experience; time until patient felt fine after discontinuation ([1]; Patient 2, single IV treatment, about 30 mg): 30 to 45 min; patient state after ketamine alone ([1]; Patient 4, 15 minutes after intranasal delivery to sphenopalatine foramen, slightly lower dose than in the combined treatment): very agitated and uncomfortable; effect on mood (anxiety and depression): about the same as the intranasal treatments

Q: Which “treatment success in chronic/acute migraine, cluster headache, trigeminal and postherpetic neuralgia, post-concussion headache” value (migraine and facial pain) does the source give for `CCN(CC)CC(=O)Nc1c(C)cccc1C` [lidocaine] here?
A: successful in most cases

Q: What about the opiate withdrawal symptoms ([2]; person, SphenoCath, treated twice 48 hours apart) of the same molecule?
A: noticeably improved

Q: What about the “need for buprenorphine during withdrawal” value ([2]; person, buprenorphine was necessary for previous detox episodes) of the same molecule?
A: able to go through withdrawal without the use bupenophrine
